Assay [1] addresses Cytochrome P450 2C9 (Homo sapiens, UniProt P11712).
Assay [2] is described as follows: inhibitors of firefly luciferase expression or activity, dose response, H4 neuroglioma cells, luminescence (AID 1990). The assay is classed as functional, cell-based.
A short description of assay [3]: Luminescence Cell-Based Dose Response HTS to Identify Inhibitors of 5'UTR Stem-Loop Driven Prion Protein mRNA Translation in H4 Neuroglioblastoma Cells. [Related pubchem assays: 1827 (Project Summary), 1813 (Primary HTS)]. The assay is classed as functional.
Assay [4] is described as follows: inhibitors of SNCA 5'UTR-driven reporter translation, confirmation, H4 neuroglioma cells, luminescence (AID 1988). The assay is classed as functional, cell-based.
In assay [5] the target is T1, Heat shock factor protein 1 (Mus musculus, UniProt P38532).
T1 sequence (P38532 whole entry): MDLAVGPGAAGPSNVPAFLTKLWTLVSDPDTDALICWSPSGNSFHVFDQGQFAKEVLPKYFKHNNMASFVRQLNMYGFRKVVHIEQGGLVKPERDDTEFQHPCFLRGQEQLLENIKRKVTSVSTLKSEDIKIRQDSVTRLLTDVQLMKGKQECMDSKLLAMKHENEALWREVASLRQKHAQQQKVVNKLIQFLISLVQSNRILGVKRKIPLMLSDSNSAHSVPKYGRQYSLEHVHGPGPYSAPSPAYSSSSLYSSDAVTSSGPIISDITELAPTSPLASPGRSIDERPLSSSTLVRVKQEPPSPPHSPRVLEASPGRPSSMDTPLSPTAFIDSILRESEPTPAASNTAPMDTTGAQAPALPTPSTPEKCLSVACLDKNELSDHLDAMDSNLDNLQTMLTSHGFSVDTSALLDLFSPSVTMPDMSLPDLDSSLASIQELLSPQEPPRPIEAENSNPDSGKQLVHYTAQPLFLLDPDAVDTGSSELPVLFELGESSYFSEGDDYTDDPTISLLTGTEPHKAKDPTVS
The assay can be described thus: inhibition of MG132-induced HSE-luciferase signal, confirmation, cell-based, NIH3T3, luminescence, dose retest (AID 2382).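 Further: NIH3T3 fibroblasts with HSF1-driven luciferase reporter stressed by proteasome inhibitor MG132; luminescence from HSF1-driven luciferase expression after 8 hours of MG132 stress.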 The assay is classed as functional.

A short description of assay [6]: Luminescence Cell-Based Dose Response HTS to Identify Activators of Luciferase Translation or Activity in H4 […] Cells. [Related pubchem assays: 1829 (Project Summary), 1814 (Primary HTS)]. The assay is classed as functional.
Assay [7] has as its system H4. As to the kind of experiment: Luminescence Cell-Based Dose Response HTS to Identify Activators of 5'UTR Stem-Loop Driven Prion Protein mRNA Translation in H4 Neuroglioblastoma Cells. [Related pubchem assays: 1829 (Project Summary), 1814 (Primary HTS)]. The assay is classed as functional. To be noted: Homo sapiens.
Assay [8] has as its target T2, Rac GTPase-activating protein 1 (Homo sapiens, UniProt Q9H0H5).
T2 sequence (Q9H0H5 whole entry): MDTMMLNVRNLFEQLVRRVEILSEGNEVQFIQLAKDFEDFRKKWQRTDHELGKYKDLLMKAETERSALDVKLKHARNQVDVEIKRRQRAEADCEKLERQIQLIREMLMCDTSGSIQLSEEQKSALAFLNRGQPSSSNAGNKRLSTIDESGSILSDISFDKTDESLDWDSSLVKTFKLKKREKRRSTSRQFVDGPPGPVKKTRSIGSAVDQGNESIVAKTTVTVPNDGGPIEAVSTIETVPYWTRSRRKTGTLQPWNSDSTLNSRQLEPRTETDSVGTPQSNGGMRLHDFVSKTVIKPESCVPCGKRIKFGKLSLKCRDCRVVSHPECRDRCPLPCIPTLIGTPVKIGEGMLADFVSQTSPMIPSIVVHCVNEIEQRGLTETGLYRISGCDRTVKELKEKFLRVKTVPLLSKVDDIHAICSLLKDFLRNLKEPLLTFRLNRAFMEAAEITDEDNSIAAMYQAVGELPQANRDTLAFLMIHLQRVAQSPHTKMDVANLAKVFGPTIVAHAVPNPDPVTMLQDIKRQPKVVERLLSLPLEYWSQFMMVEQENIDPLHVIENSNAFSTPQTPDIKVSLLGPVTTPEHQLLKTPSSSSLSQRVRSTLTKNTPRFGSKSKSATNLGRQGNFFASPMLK
As to the kind of experiment: MgcRacGAP GTPase-activating activity inhibitors, confirmation, biochemical, ADP Hunter fluorescence, primary and confirmatory (AID 624330). The assay is classed as functional.

For assay [9], the system named is Streptococcus. As to the kind of experiment: Group A Streptococcus viability loss, dose response, counter-screen for streptokinase expression inhibitor project, luminescence, BacTiterGlo (AID 1915).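 Further: potency for reduction of bacterial viability or growth.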 The assay is classed as functional, organism-based. (In general: Counterscreens check selectivity or assay interference.)
In assay [10] the target is T3, Streptokinase A (Streptococcus pyogenes serotype M1, UniProt P10520).
T3 sequence (P10520 whole entry): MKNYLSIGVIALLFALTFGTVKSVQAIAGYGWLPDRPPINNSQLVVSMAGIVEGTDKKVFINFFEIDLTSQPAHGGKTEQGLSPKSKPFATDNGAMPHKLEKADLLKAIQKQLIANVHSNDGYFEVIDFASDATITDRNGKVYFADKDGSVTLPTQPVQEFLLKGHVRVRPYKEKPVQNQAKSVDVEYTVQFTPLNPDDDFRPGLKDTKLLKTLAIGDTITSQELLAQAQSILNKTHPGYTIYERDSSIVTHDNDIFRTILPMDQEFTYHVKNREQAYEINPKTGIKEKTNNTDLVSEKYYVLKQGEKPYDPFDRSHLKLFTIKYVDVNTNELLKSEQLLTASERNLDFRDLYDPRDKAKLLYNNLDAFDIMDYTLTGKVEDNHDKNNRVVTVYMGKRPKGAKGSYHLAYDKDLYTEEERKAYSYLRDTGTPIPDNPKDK
As to the kind of experiment: S. pyogenes streptokinase expression inhibitors, potency, dose response, plasminogen activation absorbance, OD405 (AID 1914).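 Further: secreted streptokinase activity via plasminogen activation per viability signal from cell pellet.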 The assay is classed as functional, Streptococcus pyogenes M1 GAS.

Assay [11] relates to Streptococcus sp. 'group A'. The assay can be described thus: growth inhibition of control SK(-) GAS strain, dose response, counter-screen for streptokinase expression inhibitor project, luminescence, kanamycin, BacTiterGlo, confirmation (AID 1900). The assay is classed as functional, organism-based.
Assay [12] in a line: Luminescence Cell-Based Dose Retest to Confirm Inhibitors of Cancer Stem Cells. [Related pubchem assays (depositor defined):AID2717, AID2721]. The assay is classed as functional. To be noted: Homo sapiens.

Calls of active or inactive are those of the source. For most assays here, no stated cut-off is given here; in the data, actives have a measured EC50 and inactives only a lower limit. Where only a bound is given, the exact number is not on record here.

Usually AC50 stands for the concentration at which the activity in the assay is half-maximal. The EC50 is the midpoint of the concentration-response curve. What is called IC50 is the concentration that inhibits the measured activity by half.

Chain of Cytochrome P450 2C9 (P11712 whole entry): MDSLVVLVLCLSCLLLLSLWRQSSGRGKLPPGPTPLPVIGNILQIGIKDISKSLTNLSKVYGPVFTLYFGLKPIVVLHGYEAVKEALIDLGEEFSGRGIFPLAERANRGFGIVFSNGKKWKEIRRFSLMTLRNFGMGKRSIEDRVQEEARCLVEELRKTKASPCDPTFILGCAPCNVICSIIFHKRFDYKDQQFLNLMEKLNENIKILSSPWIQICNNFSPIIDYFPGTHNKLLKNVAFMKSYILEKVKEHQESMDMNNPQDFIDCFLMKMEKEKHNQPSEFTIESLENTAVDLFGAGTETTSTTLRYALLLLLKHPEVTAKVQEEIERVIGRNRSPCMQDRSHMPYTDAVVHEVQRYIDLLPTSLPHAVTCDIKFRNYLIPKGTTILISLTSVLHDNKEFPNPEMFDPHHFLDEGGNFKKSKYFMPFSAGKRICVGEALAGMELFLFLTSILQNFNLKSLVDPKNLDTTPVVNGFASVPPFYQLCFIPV

For the compound `O=C1CN=C(c2cccs2)c2c(sc3c2CCCC3)N1`, the AC50 in [1] is 35.5 µM (inconclusive).

Take `CCOc1ccccc1NC(=O)CSc1nnc(-c2ccco2)n1Cc1ccco1`: the EC50 in assay [2], in [3] and in assay [4] was > 120 µM (not active) in each case.

For `CC(C)CCNc1nc(N)c([N+](=O)[O-])c(NCC2CCCO2)n1` (stereo not given), the results for the EC50 in assay [2], in assay [3] and in assay [4] were 12 µM (active), > 120 µM (not active) and > 120 µM (not active), respectively.

`CN1CCN(CC(=O)Nc2nnc(-c3cccs3)s2)CC1`: the EC50 in [5] is > 195 µM (not active).

With `CCCCCn1c(=O)c(C(=O)Nc2ccccn2)c(O)c2ccccc21`, the EC50 in [5] is > 195 µM (not active); in [2], > 120 µM (not active); in assay [3], 11.2 µM (active); in assay [4] it was 9.51 µM (active).

As to `N=C(NOC(=O)c1cccc(F)c1)c1ccccc1`, the EC50 in assay [6] was > 120 µM (not active).

For the compound `COc1ccc(S(=O)(=O)NCC2CCCN(Cc3ccc(C)o3)C2)cc1` (stereo not given), the EC50 in assay [5] is > 195 µM (not active).

With `CCOc1ccccc1C(=O)Nc1ccc(NC(=O)c2ccccc2)cc1`, in assay [5], the EC50 is given as > 195 µM (not active).

On to `CC(C)CN(C(=O)CCCSc1nc2ccccc2[nH]1)c1c(N)n(Cc2ccccc2)c(=O)[nH]c1=O`, for which, in assay [5], the EC50 was > 195 µM (not active).

Regarding `CCOC(=O)Cn1c(CCC(=O)O)ccc1-c1ccc(F)cc1`, the EC50 in [5] is given as > 195 µM (not active).

Regarding `N#Cc1ccsc1NC(=O)COC(=O)c1ccc2ccccc2c1`, the EC50 in assay [7] was 17.5 µM (active).

Consider `CCOc1ccc(C(=O)Nc2ccc3nc(N4CCN(CC)CC4)cc(C)c3c2)cc1`, for which the EC50 is 10.3 µM (active) in [2], > 120 µM (not active) in assay [3] and > 120 µM (not active) in [4].

For `COc1cc(/C=N/NC(=O)c2cc(C)oc2C)ccc1O`, the EC50 in [5] is > 195 µM (not active). Also, the IC50 in assay [8] was 37.6 µM (active).

Take `CC(C)c1ccc(/C=N/n2c(S)nnc2-c2ccccc2)cc1`: the EC50 in assay [9] was > 150 µM (not active); in assay [10], > 150 µM (not active); in assay [11], 18.3 µM (active).

`CC(C)Sc1cc(N2CCCC2)nc(-c2ccccc2)n1`: the EC50 is > 150 µM (not active) in [9], 11.2 µM (active) in assay [10] and 12.3 µM (active) in assay [11].

Turning to `Cc1ccc(N2C(=O)c3ccccc3C2Nc2ccccc2F)nc1` (stereo not given), the EC50 in assay [5] is > 195 µM (not active).

Take `CSc1ccc(/C=C2\CCn3c2nc2cc(C(=O)O)ccc2c3=O)cc1`: the EC50 in assay [9] was > 150 µM (not active); in [10] it was > 150 µM (not active); in assay [11], 23.1 µM (active).

On to `CSc1ccc2nnc(-c3cccc(F)c3)n2n1`, for which the AC50 in assay [1] is 39.8 µM (inconclusive).

Consider `CCOC(=O)c1c(C)[nH]c(C(=O)Nc2ccc(NC(C)=O)cc2)c1C`, for which the EC50 in [2] was 10.9 µM (active); in assay [3] it was 3.99 µM (active); in [4] it was 10.9 µM (active).

Regarding `COc1ccc2c(c1)CC/C2=N\OC(=O)c1cccc(C)c1`, the EC50 in assay [6] is 0.105 µM (active).

`COc1ccc(-n2c(C)nnc2O)cc1OC`: the AC50 in [1] was 1.78 µM (inconclusive).

On to `COc1ccc(-c2nc3cnc(N4CCNCC4)nc3n(Cc3cccs3)c2=O)cc1`, for which, in assay [1], the AC50 was 39.8 µM (inconclusive).

In the case of `O=[N+]([O-])c1ccccc1CCc1cnc(Cl)s1`, in [5], the EC50 is on record as > 195 µM (not active).

Take `O=C(NC(=S)N1CCCCC1c1cccnc1)c1ccc(F)cc1` (stereo not given): the EC50 in assay [9], in [10] and in assay [11] was > 150 µM (not active) each time.

As to `CC(Oc1ccccc1)C(=O)NC1=NCCS1` (stereo not given), the EC50 was 18.9 µM (active) in assay [7] and 94.2 µM (active) in [6].

As to `COc1ccc(-c2oc3ccc(N4CCOCC4)cc3c2C#CCO)cc1`, the AC50 in assay [12] is 3.96 µM (active).

Take `Cc1cccc(C(=O)N/N=C/c2ccc(OC3CSC3)cc2)c1`: in assay [12], the AC50 is 1.71 µM (active).

With `Cc1ccc(-c2ccc(=O)n(CCC(=O)NCCN3CCCCC3C)n2)cc1` (stereo not given), the EC50 in assay [5] is > 195 µM (not active).

Turning to `CCCc1[nH]nc2c1/C(=N/O)CC(c1ccccc1)C2` (stereo not given), the EC50 was 12.8 µM (active) in assay [2], > 120 µM (not active) in [3] and 13.4 µM (active) in assay [4].

As to `C=C1/C(=C\C=C2/CCC[C@]3(C)[C@@H]([C@H](C)/C=C/[C@@H](O)C4CC4)CC[C@@H]23)C[C@@H](O)C[C@@H]1O` [CALCIPOTRIENE], the AC50 in [12] is 8.81 µM (active).

In the case of `CN1CCN(S(=O)(=O)c2cccc(C(=O)Nc3cc(C(F)(F)F)ccc3N3CCCCC3)c2)CC1`, the AC50 in assay [12] is 2.5 µM (active).

`CC(C)(C)C(=O)N1CCN(CCN2C(=O)c3cccc4cccc(c34)C2=O)CC1`: the EC50 in assay [5] is given as > 195 µM (not active).

With `COc1cc(S(=O)(=O)N2CCCCCC2)c(OC)cc1Br`, in assay [12], the AC50 was 1.01 µM (active).

`CCOC(=O)Cn1nnc2c(sc3nc4c(c(-c5ccccc5)c32)CCC4)c1=O`: the EC50 in assay [2] is > 120 µM (not active); in assay [3], 3.88 µM (active); in assay [4] it was > 120 µM (not active).

Regarding `CC1CC1C(=O)OCc1cc(=O)n2cc(Br)ccc2n1` (stereo not given), the EC50 was > 120 µM (not active) in assay [7] and 0.102 µM (active) in [6].

With `Cc1c(CCC(=O)N[C@@H](C)C(=O)O)c(=O)oc2cc3oc4c(c3cc12)CCCC4`, the EC50 was 12.7 µM (active) in [2], 17 µM (active) in assay [3] and 14.4 µM (active) in [4].

For the compound `COc1ccc2c(c1OC)C(=O)OC2Nc1ccc(S(=O)(=O)N=C(N)N)cc1` (stereo not given), in assay [5], the EC50 is on record as > 195 µM (not active).

With `CC(=O)N/N=C(\C)CC(=O)NC(C)(C)C`, in assay [5], the EC50 was > 195 µM (not active).

`Cc1ccc(NC(=O)CN2C(=O)NC3(CCCC3)C2=O)c(Cl)c1`: the EC50 in [5] was > 195 µM (not active).

`Cc1onc(-c2ccccc2)c1C(=O)N1CCN(S(=O)(=O)c2ccc(Cl)cc2)CC1`: the EC50 in assay [2], in assay [3] and in assay [4] was > 120 µM (not active) each time.

Source of the values: ChEMBL document CHEMBL1201862, “PubChem BioAssay data set” (2004).
